Experimental data reported in US12679801B2, “Amino lipid and preparation method and application thereof” (Shenzhen MagicRNA Biotechnology Co., Ltd., priority 2022, dated 2026).

Columns and labels:
HeLa cells = test: In-vitro evaluation of E7C71A9, Compound A, B, C as Luc-mRNA vector (Embodiment 27, Table 14); type: cell-based; details: Luc-mRNA 100 ng/well, 16-20 h, relative to Lipofectamine3000, lipid:DSPC:cholesterol:PEG2000-DMG 43:10.5:45:1.5
Excerpt: • Cell line: HeLa cell line • Culture medium: 1640 […] supplemented with 10% fetal calf serum • Screening form: 96-well plate cell transfection • Detection: fluorescence intensity detection by a multifunctional microplate reader. According to manufacturer's instructions, Lipofectamine3000 was used as a positive control group. • Method: a pipette was used for sample addition. The shown content is the content of a single well of a 96-well plate.
1. Synthesis of E7C71A9, Compound A, Compound B, and Compound C was performed as described above. And these four ionizable amino lipid compounds were respectively mixed with DSPC, cholesterol and PEG2000-DMG into absolute ethyl alcohol. according to a mole ratio of 43:10.5:45:1.5, The Luc-mRNA was dissolved into a sodium acetate buffer solution ([…], pH=5.0). The mixed lipid solution was taken out by a pipette, and was added into the Luc-mRNA solution to be sufficiently mixed. A proportion ratio of the ethyl alcohol solution to the sodium acetate buffer solution ([…], pH=5.0) was controlled to be 1:3, and a nanoparticle solution was prepared. A mass ratio of the amino lipid compound to luciferase mRNA (Luc mRNA) was about 10:1, and the mRNA consumption in each well was 100 ng.
2. After the lipid nanoparticle solution was incubated for 30 min at room temperature, 100 μL of fresh resuspended HeLa cells (1×10^4 cells) were added into each well of a 96-well all-white ELISA plate. Then, the lipid nanoparticle solution was added into the 96-well plate (10 μL for each well) by a pipette. The solution was placed into a 37° C. incubator containing 5% CO2 to be incubated.
3. After 16 h to 20 h of cell initial transfection, a substrate ONE-Glo™ Luciferase was added into cells at 100 μL/well, and after 2 min, detection was performed by a multifunctional or multimode microplate reader.
4. The relative transfection efficiency was calculated as follows: Relative transfection efficiency (%)=fluorescence intensity of LNP/fluorescence intensity of Lipofectamine3000×100%.

BMDC primary cells [1] = test: Luc mRNA LNP transfection on BMDC primary cells (Embodiment 13, Table 3); type: cell-based, C57BL/6 mice; details: 16 h, ONE-Glo Luciferase
Procedure: Preparation method: the same as that described in Embodiment 7.
(§1) Animal preparation: 6-week-old female C57BL/6 mice with the body weight about 20 g were selected. The feeding environment was an SPF stage feeding room. Animal tests were strictly performed according to the guide of the national health institute and the animal ethics requirements.
(§2) Cell acquisition: C57BL/6 mice were killed through cervical dislocation, and were soaked for 5 min in 75% ethyl alcohol. Dissection was performed to obtain thigh and calf tibiae of the mice. Attached muscles were removed to expose sclerotin. Then, bone marrow in tibiae was blown out by using a 1 mL injector sucked with PBS. After the bone marrow was blown away, impurities were filtered away by a 50 μm filter screen. A red blood cell lysis buffer (3-4 mL) was added into an obtained filtrate. Then, after placement for 5 min, 800 g centrifugation was performed for 5 min to remove the supernatant. The obtained cells were placed into a 1640 culture medium (containing 10% fetal calf serum, 20 ng/mL GMCSF and 10 ng/ml IL4) to be resuspended, and were inoculated into a 6-well plate at an inoculation density of 100000 cells/ml culture medium. The materials were placed into a 37° C. cell incubator containing 5% CO2. Half liquid change was performed once every 2 days. Suspended cells and loose wall attached cells were collected on the seventh day, and were […], and the volume of a culture medium was 100 μL.
(§3) Cell transfection: lipid nanoparticles coated with luciferase mRNA were added into a 96-well all-white ELISA plate laid with primary cells. The adding volume of the mRNA lipid nanoparticles in each well was controlled to be 10 μL. Then, the materials were put into a 37° C. incubator containing 5% CO2 for 16 h.
Transfection efficiency detection: 20 μL of a substrate ONE-Glo™ Luciferase was added into each well of a 96-well all-white ELISA plate. After 1 min, detection was performed by a multifunctional or multimode microplate reader.

B16-OVA melanoma cells [2] = test: OVA mRNA LNP vaccine, in-vivo immunity and tumor treatment (Embodiment 15); set-up: species or system C57BL/6 mice; details: B16-OVA tumor-bearing mice, two intramuscular injections of LNP with 1 μg OVA-mRNA, 7 days apart
Procedure: Preparation method: the amino lipid compounds of the disclosure, DSPC, cholesterol and PEG2000-DMG were mixed according to a mole ratio of 50:10:38.5:1.5 and were dissolved in absolute ethyl alcohol. OVA mRNA was dissolved in a sodium acetate buffer solution (50 nM, pH=4.0). The obtained ethyl alcohol solution and the acetate buffer solution […] were mixed in a micro-fluidic chip according to a volume ratio of 1:3 by using a micro-fluidic preparation system to obtain lipid nanoparticles. Then, dialysis was performed for 6 h under the conditions of 1×PBS and temperature was controlled at 4° C. by using a dialysis cassettes or box (MWCO 20,000). Filtration was performed by a 0.22 μm microporous filtering membrane prior to use. The mass ratio of the amino lipid compound to OVA mRNA was about 10:1.
(§4) Animal preparation: 5-6-week-old female C57BL/6 mice with the body weight about 18 to 20 g were selected. The feeding environment was an SPF stage feeding room. Animal tests were strictly performed according to the guide of the national health institute and the animal ethics requirements.
(§5) In-vivo delivery: B16-OVA melanoma cells (1.5×10^5) were injected to the outer thighs of the mice through subcutaneous injection. When the tumor grew to 50 mm^3 (on the about 6th or 7th day after tumor inoculation), the mice began to inoculated vaccines, the animals were subjected to twice immunization through intramuscular injection of an LNP preparation containing 1 μg OVA-mRNA. An interval between first and second injections was 7 days. The tumor growth was measured for 3 times every week by a digital display calliper, and a calculation formula was […]. When the tumor size reached 1500 mm^3, the mice received euthanasia. Additionally, 60% of mice (E7C71A9 group) and 40% of mice (E6C71A12 group) respectively reached the complete relieving effect.

BMDC primary cells [3] = test: Luc mRNA LNP transfection of the four amino lipids on BMDC primary cells (Embodiment 28, Table 15); type: cell-based, C57BL/6 mice; details: Luc mRNA LNP 10 μL per well, 16 h, ONE-Glo Luciferase
Procedure: Preparation method: the same as that described above.
as §1, §2, §3
Transfection efficiency detection: 20 μL of a substrate ONE-Glo™ Luciferase was added into each well of a 96-well all-white ELISA plate. After 1 min, detection was performed by a multifunctional or multimode microplate reader. DLin-MC3 was used as a control.

B16-OVA melanoma cells [4] = test: OVA mRNA LNP vaccine, in-vivo immunity and tumor treatment (Embodiment 23); set-up: species or system C57BL/6 mice; details: B16-OVA tumor-bearing mice, two intramuscular injections of LNP with 5 μg OVA-mRNA, 7 days apart
Procedure: Preparation method: the amino lipid compounds of the disclosure, DSPC, cholesterol and PEG2000-DMG were mixed according to a mole ratio of 50:10:38.5:1.5 in absolute ethyl alcohol. OVA mRNA was dissolved in a sodium acetate buffer solution (50 nM, pH=4.0). The ratio of the ethyl alcohol solution to the acetate buffer solution (50 nM, pH=4.0) was controlled to be 1:3 by using two micro-injection pumps to prepare a coarse solution of the lipid nanoparticles in a micro-fluidic chip. Then, dialysis was performed for 6 h under the conditions of 1×PBS and temperature control at 4° C. by using a dialysis cassettes or box (MWCO 20,000). Before use, filtration was performed by a 0.22 μm microporous filtering membrane. A mass ratio of the amino lipid compound to OVA mRNA was about 8:1.
as §4
as §5, with “containing 5” for “containing 1”, “euthanasia.” for “euthanasia. Additionally, 60% of mice (E7C71A9 group) and 40% of mice (E6C71A12 group) respectively reached the complete relieving effect.”

BMDC primary cells [5] = test: Luc mRNA LNP transfection on BMDC primary cells (Embodiment 21, Table 9); type: cell-based, C57BL/6 mice; details: 16 h, ONE-Glo Luciferase
endosome/lysosome = details: background statement; cited from earlier work

In the case of `CCCCCCCCCCC(COC(=O)C(CCCCCC)CCCCCCCC)OC(=O)CCCN(C)C` (centres unmarked) [E7C71A9, 2-((4-(Dimethylamino)Butanoyl)Oxy) Dodecyl 2-Hexyldecanoate], the “Relative Transfection Efficiency” value (HeLa cells) was 2.0, the Luciferase luminescence intensity (BMDC primary cells [1]) was 8.8E+ 04 and the “mice that reached the complete relieving effect” value (B16-OVA melanoma cells [2]) was 60%. For the same compound, the “result (survival curve, FIG. 4) compared with MC3 group” value (B16-OVA melanoma cells [2]) was “obviously superior to that of MC3 group”, the “tumor growth speed compared with MC3 group (FIG. 3)” value (B16-OVA melanoma cells [2]) was “obviously lower than that of MC3 group” and the “Fluorescence intensity (transfection expression intensity)” value (from here on “Fluorescence intensity”) (BMDC primary cells [3]) was 8.8E+04.

In the case of `CCCCCCCCCCC(CCCOC(=O)C(CCCCCC)CCCCCCCC)OC(=O)CCCN(C)C` (centres unmarked) [Compound B], the “Relative Transfection Efficiency” value (HeLa cells) was 0.45 and the “Fluorescence intensity” value (BMDC primary cells [3]) was 2.5E+04.

For `CCCCCCCCCCC(COC(=O)C(CCCCCCCC)CCCCCCCC)OC(=O)CCCCN(C)C` (centres unmarked) [E7C115A11], the “mice tumors completely disappeared” value (B16-OVA melanoma cells [4]) was 90%, the survival rate (B16-OVA melanoma cells [4]) was 100% and the “survival rate compared with MC3 group (FIG. 6)” value (B16-OVA melanoma cells [4]) was “obviously superior to that of MC3 group”. The “tumor growth speed compared with MC3 group (FIG. 5)” value (B16-OVA melanoma cells [4]) was “obviously lower than that of MC3 group” and the Luciferase luminescence intensity (BMDC primary cells [5]) was 2.4E+05.

With `CCCCCCCCCCC(CCCCOC(=O)C(CCCCCC)CCCCCCCC)OC(=O)CCCN(C)C` (centres unmarked) [Compound C] the “Relative Transfection Efficiency” value (HeLa cells) was 0.39 and the “Fluorescence intensity” value (BMDC primary cells [3]) was 9.3E+03.

With `CCCCCCCCCC(COC(=O)C(CCCCCC)CCCCCCCC)OC(=O)CCCCCN(C)C` (centres unmarked) [E6C71A12] the Luciferase luminescence intensity (BMDC primary cells [1]) was 7.3E+ 04, the “mice that reached the complete relieving effect” value (B16-OVA melanoma cells [2]) was 40% and the “result (survival curve, FIG. 4) compared with MC3 group” value (B16-OVA melanoma cells [2]) was “obviously superior to that of MC3 group”. The “tumor growth speed compared with MC3 group (FIG. 3)” value (B16-OVA melanoma cells [2]) was “obviously lower than that of MC3 group”.

In the case of `CCCCCCCCCCC(CCOC(=O)C(CCCCCC)CCCCCCCC)OC(=O)CCCN(C)C` (centres unmarked) [Compound A, 3-((4-(dimethylamino)butanoyl)oxy)tridecyl 2-hexyldecanoate], the “Relative Transfection Efficiency” value (HeLa cells) was 0.62 and the “Fluorescence intensity” value (BMDC primary cells [3]) was 4.9E+04.

In the case of `CCCCC/C=C\C/C=C\CCCCCCCCC(CCCCCCCC/C=C\C/C=C\CCCCC)OC(=O)CCCN(C)C` [DLin-MC3, DLin-MC3-DMA], the “RNA that escapes from the endosome/lysosome” value (endosome/lysosome) is listed as 1%-4%.

For `CCCCCCCCCCCCC(COC(=O)CC(CCCCC)CCCCCCCCC)OC(=O)CCCCN(C)C` (centres unmarked) [E9C123A11], the Luciferase luminescence intensity (BMDC primary cells [5]) was 5.1E+04.
